According to US11339161B2, “Triazolo pyridines as modulators of gamma-secretase” (Boehringer Ingelheim International GmbH, priority 2017, dated 2022):
Read-outs that look alike come from different tables or passages of the source.

How the values were obtained:
[1] = target: CSF1R (FMS) (Homo sapiens, UniProt P07333); experiment: Z'-LYTE SelectScreen biochemical kinase assay CSF1R (FMS)
Text: (§1) Thermo Fisher Scientific SelectScreen™ Biochemical Kinase Profiling Service Z′-LYTE™ Screening Protocol and Assay Conditions Assay Theory
(§2) The […] biochemical assay employs a fluorescence-based, coupled-enzyme format and is based on the differential sensitivity of phosphorylated and non-phosphorylated peptides to proteolytic cleavage. The peptide substrate is labeled with two fluorophores—one at each end—that make up a FRET pair. In the primary reaction, the kinase transfers the gamma-phosphate of ATP to a single tyrosine, serine or threonine residue in a synthetic FRET-peptide. In the secondary reaction, a site-specific protease recognizes and cleaves non-phosphorylated FRET-peptides. Phosphorylation of FRET-peptides suppresses cleavage by the Development Reagent. Cleavage disrupts FRET between the donor (i.e., coumarin) and acceptor (i.e., fluorescein) fluorophores on the FRET-peptide, whereas uncleaved, phosphorylated FRET-peptides maintain FRET. A ratiometric method, which calculates the ratio (Emission Ratio=Coumarin emission (445 nm)/Fluorescein emission (520 nm)) of donor emission to acceptor emission after excitation of the donor fluorophore at 400 nm, is used to quantitate reaction progress, as shown in the equation below. A significant benefit of this ratiometric method for quantitating reaction progress is the elimination of well-to-well variations in FRET-peptide concentration and signal intensities. As a result, the assay yields very high Z′-factor values (>0.7) at a low percent phosphorylation. Both cleaved and uncleaved FRET-peptides contribute to the fluorescence signals and therefore to the Emission Ratio. The extent of phosphorylation of the FRET-peptide can be calculated from the Emission Ratio. The Emission Ratio will remain low if the FRET-peptide is phosphorylated (i.e., no kinase inhibition) and will be high if the FRET-peptide is non-phosphorylated (i.e., kinase inhibition).
(§3) The Test Compounds are screened in 1% DMSO (final) in the well. For 10 point titrations, 3-fold serial dilutions are conducted from the starting concentration of the customer's choosing.
(§4) All Peptide/Kinase Mixtures are diluted to a 2× working concentration in the appropriate Kinase Buffer (see section Kinase Specific Assay Conditions for a complete description).
(§5) All ATP Solutions are diluted to a 4× working concentration in Kinase Buffer (50 mM HEPES pH 7.5, 0.01% BRIJ-35, 10 mM MgCl2, 1 mM EGTA). ATP Km apparent is previously determined using a Z″-LYTE assay.
(§6) The Development Reagent is diluted in Development Buffer (see section Kinase-Specific Assay Conditions—Direct and Cascade for a complete description).
(§7) Bar-coded Corning, low volume NBS, black 384-well plate (Corning Cat. #4514) • 1. 100 nL—100× Test Compound in 100% DMSO • 2. 2.4 μL—Kinase buffer • 3. 5 μL—2× Peptide/Kinase Mixture • 4. 2.5 μL—4×ATP Solution • 5. 30—second plate shake • 6. 60—minute Kinase Reaction incubation at room temperature • 7. 5 μL—Development Reagent Solution • 8. 30—second plate shake • 9. 60—minute Development Reaction incubation at room temperature • 10. Read on fluorescence plate reader and analyze the data Z′-LYTE Assay Controls
(§8) SelectScreen Kinase Profiling Service uses XLfit from IDBS. The dose response curve is curve fit to model number 205 (sigmoidal dose-response model).
(§9) The 2×CSF1R (FMS)/Tyr 01 mixture is prepared in 50 mM HEPES pH 7.5, 0.01% BRIJ-35, 10 mM MgCl2, 1 mM EGTA. The final 10 μL Kinase Reaction consists of 0.2-40 ng CSF1R (FMS) and 2 μM Tyr 01 in 50 mM HEPES pH 7.5, 0.01% BRIJ-35, 10 mM MgCl2, 1 mM EGTA. After the 1 hour Kinase Reaction incubation, 5 μL of a 1:256 dilution of Development Reagent B is added.

[2] = target: LYN B (Homo sapiens, UniProt P07948); experiment: Z'-LYTE SelectScreen biochemical kinase assay LYN B
Text: as §1, §2, §3, §4, §5, §6, §7, §8
The 2×LYN B/Tyr 02 mixture is prepared in 50 mM HEPES pH 7.5, 0.01% BRIJ-35, 10 mM MgCl2, 1 mM EGTA. The final 10 μL Kinase Reaction consists of 0.85-14.8 ng LYN B and 2 μM Tyr 02 in 50 mM HEPES pH 7.5, 0.01% BRIJ-35, 10 mM MgCl2, 1 mM EGTA. After the 1 hour Kinase Reaction incubation, 5 μL of a 1:128 dilution of Development Reagent A is added.

[3] = target: PDGFRA (PDGFR alpha) (Homo sapiens, UniProt P16234); experiment: Z'-LYTE SelectScreen biochemical kinase assay PDGFRA (PDGFR alpha)
Text: as §1, §2, §3, §4, §5, §6, §7, §8
The 2×PDGFRA (PDGFR alpha)/Tyr 04 mixture is prepared in 50 mM HEPES pH 7.5, 0.01% BRIJ-35, 10 mM MgCl2, 4 mM MnCl2, 1 mM EGTA, 2 mM DTT. The final 10 μL Kinase Reaction consists of 1.54-22.6 ng PDGFRA (PDGFR alpha) and 2 μM Tyr 04 in 50 mM HEPES pH 7.5, 0.01% BRIJ-35, 10 mM MgCl2, 2 mM MnCl2, 1 mM EGTA, 1 mM DTT. After the 1 hour Kinase Reaction incubation, 5 μL of a 1:64 dilution of Development Reagent B is added.

[4] = target: PTK2 (FAK) (Homo sapiens, UniProt Q05397); experiment: Z'-LYTE SelectScreen biochemical kinase assay PTK2 (FAK)
Text: as §1, §2, §3, §4, §5, §6, §7, §8
as §9, with “The 2×PTK2 (FAK)/Tyr 07” for “The 2×CSF1R (FMS)/Tyr 01”, “of 12.5-100” for “of 0.2-40”, “ng PTK2 (FAK)” for “ng CSF1R (FMS)”, “Tyr 07” for “Tyr 01”, “a 1:16” for “a 1:256”

[5] = 10 μmolar compound concentration, ATP at Km app, read-out: CSF1R (FMS) inhibition
[6] = read-out: % Inhibition mean CSF1R (FMS)
[7] = 10 μmolar compound concentration, ATP at Km app, read-out: LYN B inhibition
[8] = read-out: % Inhibition mean LYN B
[9] = 10 μmolar compound concentration, ATP at Km app, read-out: PDGFRA (PDGFR alpha) inhibition
[10] = read-out: % Inhibition mean PDGFRA (PDGFR alpha)
[11] = 10 μmolar compound concentration, ATP at Km app, read-out: PTK2 (FAK) inhibition
[12] = read-out: % Inhibition mean PTK2 (FAK)

Sequence of PDGFRA (PDGFR alpha) (P16234 24-1089): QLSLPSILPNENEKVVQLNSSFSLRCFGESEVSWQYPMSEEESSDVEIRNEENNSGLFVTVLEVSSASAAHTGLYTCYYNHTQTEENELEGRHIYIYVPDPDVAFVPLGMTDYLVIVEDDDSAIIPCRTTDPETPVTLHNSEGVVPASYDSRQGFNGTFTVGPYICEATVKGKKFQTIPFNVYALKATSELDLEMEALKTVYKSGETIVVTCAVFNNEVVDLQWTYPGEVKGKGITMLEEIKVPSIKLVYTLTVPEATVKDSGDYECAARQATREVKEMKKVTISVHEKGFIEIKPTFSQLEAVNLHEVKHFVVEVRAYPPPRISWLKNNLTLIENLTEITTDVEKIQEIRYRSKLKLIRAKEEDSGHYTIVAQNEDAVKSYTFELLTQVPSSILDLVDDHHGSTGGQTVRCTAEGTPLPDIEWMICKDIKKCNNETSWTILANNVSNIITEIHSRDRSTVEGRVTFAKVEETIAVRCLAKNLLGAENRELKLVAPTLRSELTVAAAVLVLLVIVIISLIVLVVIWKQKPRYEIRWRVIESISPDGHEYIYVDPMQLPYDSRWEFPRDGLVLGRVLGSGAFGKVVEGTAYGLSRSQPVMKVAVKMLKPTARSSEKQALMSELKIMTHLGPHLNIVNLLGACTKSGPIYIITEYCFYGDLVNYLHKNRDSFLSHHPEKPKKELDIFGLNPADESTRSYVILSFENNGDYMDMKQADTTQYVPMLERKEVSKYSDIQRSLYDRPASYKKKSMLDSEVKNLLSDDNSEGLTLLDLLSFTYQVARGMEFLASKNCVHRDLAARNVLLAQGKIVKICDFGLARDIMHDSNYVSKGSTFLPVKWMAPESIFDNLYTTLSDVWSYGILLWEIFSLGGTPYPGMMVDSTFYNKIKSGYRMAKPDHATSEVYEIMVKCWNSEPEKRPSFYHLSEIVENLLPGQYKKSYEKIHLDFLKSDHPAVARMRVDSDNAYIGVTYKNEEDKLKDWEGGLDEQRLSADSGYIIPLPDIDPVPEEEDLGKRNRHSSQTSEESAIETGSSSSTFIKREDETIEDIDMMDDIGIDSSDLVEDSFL
Sequence of PTK2 (FAK) (Q05397 whole entry): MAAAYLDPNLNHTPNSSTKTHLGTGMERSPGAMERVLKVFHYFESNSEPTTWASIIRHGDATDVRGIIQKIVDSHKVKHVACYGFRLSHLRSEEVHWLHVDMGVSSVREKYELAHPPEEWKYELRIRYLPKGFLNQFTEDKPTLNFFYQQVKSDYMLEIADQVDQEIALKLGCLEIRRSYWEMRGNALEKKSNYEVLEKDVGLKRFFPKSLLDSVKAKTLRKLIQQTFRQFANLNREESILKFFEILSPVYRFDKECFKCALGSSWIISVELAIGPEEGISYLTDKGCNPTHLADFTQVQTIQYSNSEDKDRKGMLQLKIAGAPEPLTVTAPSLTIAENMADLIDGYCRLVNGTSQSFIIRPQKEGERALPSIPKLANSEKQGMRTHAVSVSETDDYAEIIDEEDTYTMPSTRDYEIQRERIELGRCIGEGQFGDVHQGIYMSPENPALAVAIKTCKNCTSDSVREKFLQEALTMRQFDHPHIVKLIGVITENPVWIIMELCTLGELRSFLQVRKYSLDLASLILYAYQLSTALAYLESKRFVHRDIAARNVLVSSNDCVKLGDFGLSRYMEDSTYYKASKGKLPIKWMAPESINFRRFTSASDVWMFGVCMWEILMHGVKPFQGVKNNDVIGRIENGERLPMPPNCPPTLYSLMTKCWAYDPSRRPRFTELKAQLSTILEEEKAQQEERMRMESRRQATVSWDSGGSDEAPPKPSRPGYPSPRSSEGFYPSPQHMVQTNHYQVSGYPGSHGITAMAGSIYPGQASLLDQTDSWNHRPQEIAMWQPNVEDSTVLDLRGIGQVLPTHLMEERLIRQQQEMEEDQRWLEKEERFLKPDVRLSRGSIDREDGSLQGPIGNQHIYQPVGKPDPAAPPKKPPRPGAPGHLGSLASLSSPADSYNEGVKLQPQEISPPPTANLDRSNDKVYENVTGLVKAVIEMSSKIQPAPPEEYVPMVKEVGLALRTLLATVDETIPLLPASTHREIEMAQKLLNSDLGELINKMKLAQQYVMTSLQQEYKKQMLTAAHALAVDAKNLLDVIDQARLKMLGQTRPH
Sequence of LYN B (P07948 1-491 isoform P07948-2): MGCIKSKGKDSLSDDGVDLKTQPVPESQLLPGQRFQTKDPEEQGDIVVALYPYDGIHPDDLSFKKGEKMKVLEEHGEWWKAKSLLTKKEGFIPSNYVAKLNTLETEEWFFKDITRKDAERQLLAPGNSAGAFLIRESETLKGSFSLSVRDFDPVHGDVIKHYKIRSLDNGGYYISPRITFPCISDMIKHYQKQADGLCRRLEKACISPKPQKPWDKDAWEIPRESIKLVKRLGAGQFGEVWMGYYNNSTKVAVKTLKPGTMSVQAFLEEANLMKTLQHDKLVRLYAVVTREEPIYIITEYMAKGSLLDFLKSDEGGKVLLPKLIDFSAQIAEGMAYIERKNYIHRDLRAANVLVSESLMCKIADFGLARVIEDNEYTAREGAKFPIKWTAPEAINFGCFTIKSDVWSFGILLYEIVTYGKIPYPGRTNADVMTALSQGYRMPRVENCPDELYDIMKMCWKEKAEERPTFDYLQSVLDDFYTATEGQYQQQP
Sequence of CSF1R (FMS) (P07333 20-972): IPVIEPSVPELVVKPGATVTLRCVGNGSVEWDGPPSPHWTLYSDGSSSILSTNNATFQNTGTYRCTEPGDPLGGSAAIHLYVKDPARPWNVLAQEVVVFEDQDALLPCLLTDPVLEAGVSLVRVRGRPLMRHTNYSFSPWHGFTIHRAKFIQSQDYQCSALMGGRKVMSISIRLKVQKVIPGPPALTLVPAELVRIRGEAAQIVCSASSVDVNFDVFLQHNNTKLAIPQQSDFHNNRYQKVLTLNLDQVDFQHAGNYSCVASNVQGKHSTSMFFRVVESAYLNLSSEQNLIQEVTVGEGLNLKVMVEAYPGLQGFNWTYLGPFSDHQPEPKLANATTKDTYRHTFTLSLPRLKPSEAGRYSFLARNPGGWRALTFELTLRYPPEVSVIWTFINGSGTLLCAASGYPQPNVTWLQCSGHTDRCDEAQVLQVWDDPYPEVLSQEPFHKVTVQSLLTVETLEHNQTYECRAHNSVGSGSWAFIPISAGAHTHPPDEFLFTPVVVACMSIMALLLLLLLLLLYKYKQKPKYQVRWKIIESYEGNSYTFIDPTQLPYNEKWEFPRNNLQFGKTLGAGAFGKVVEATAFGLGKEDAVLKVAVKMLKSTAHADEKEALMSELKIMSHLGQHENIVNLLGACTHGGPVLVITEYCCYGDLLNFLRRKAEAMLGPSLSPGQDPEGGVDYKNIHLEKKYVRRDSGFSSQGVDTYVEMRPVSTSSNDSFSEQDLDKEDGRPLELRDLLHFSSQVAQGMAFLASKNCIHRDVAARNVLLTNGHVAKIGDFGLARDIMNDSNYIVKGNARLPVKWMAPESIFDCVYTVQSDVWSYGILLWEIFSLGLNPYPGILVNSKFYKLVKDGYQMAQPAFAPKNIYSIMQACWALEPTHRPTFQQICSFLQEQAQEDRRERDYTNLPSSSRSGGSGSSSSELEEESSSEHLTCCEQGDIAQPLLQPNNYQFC

Compound	inhibition at 10 µM [1, 5] [%]	inhibition at 10 µM [1, 6] [%]	inhibition at 10 µM [2, 7] [%]	inhibition at 10 µM [2, 8] [%]	inhibition at 10 µM [3, 9] [%]	inhibition at 10 µM [3, 10] [%]	inhibition at 10 µM [4, 11] [%]	inhibition at 10 µM [4, 12] [%]	inhibition at 10 µM ([1]; read-out: % Inhibition mean) [%]	inhibition at 10 µM ([2]; read-out: % Inhibition mean) [%]	inhibition at 10 µM ([3]; read-out: % Inhibition mean) [%]	inhibition at 10 µM ([4]; read-out: % Inhibition mean) [%]
CCn1ncc2c1CCC(Nc1nc3c(-c4cccnc4OC)cccn3n1)C2 (stereo not shown) [Example 69, (1-Ethyl-4,5,6,7-tetrahydro-1H-indazol-5-yl)-[8-(2-methoxy-pyridin-3-yl)-[1,2,4]triazolo[1,5-a]pyridine-2-yl]-amine]	< 40	8	< 40	15	< 40	17	< 40	24	–	–	–	–
CC1(C)C(=O)Nc2ccc(Nc3nc4c(-c5cccc(F)c5)cccn4n3)cc21 [Cpd. 263 in WO09155551, reference compound]	> 80	–	> 80	–	> 80	–	> 80	–	93	98	86	101
Fc1cccc(-c2cccn3nc(Nc4ccc5[nH]cnc5c4)nc23)c1 [Cpd. 293 in WO09155551, reference compound]	> 80	–	> 80	–	> 80	–	> 80	–	90	89	88	94
Cc1cc(F)ccc1-c1cccn2nc(NC3CCc4cnn(C)c4C3)nc12 (stereo not shown) [Example 40, [8-(4-Fluoro-2-methyl-phenyl)-[1,2,4]triazolo[1,5-a]pyridine-2-yl]-(1-methyl-4,5,6,7-tetrahydro-1H-indazol-6-yl)-amine]	< 40	25	< 40	20	< 40	5	< 40	18	–	–	–	–
CCn1ncc2c1CCC(Nc1nc3c(-c4cnccc4OC)cccn3n1)C2 (stereo not shown) [Example 68, (1-Ethyl-4,5,6,7-tetrahydro-1H-indazol-5-yl)-[8-(4-methoxy-pyridin-3-yl)-[1,2,4]triazolo[1,5-a]pyridine-2-yl]-amine]	40 to 80	66	< 40	22	< 40	23	< 40	28	–	–	–	–
CCCn1ncc2c1CCC(Nc1nc3c(-c4ccc(F)cc4C)cccn3n1)C2 (stereo not shown) [Example 43, [8-(4-fluoro-2-methyl-phenyl)-[1,2,4]triazolo[1,5-a]pyridine-2-yl]-(1-propyl-4,5,6,7-tetrahydro-1H-indazol-5-yl)-amine]	< 40	28	< 40	22	< 40	16	< 40	19	–	–	–	–
Cc1cc(F)ccc1-c1cccn2nc(NC3CCc4c(cnn4C(C)C)C3)nc12 (stereo not shown) [Example 44, [8-(4-fluoro-2-methyl-phenyl)-[1,2,4]triazolo[1,5-a]pyridine-2-yl]-(1-isopropyl-4,5,6,7-tetrahydro-1H-indazol-5-yl)-amine]	40 to 80	43	< 40	21	< 40	5	< 40	15	–	–	–	–

Now from value to compound:

inhibition at 10 µM [1, 5] [%]	inhibition at 10 µM [1, 6] [%]	inhibition at 10 µM [2, 7] [%]	inhibition at 10 µM [2, 8] [%]	inhibition at 10 µM [3, 9] [%]	inhibition at 10 µM [3, 10] [%]	inhibition at 10 µM [4, 11] [%]	inhibition at 10 µM [4, 12] [%]	inhibition at 10 µM ([1]; read-out: % Inhibition mean) [%]	inhibition at 10 µM ([2]; read-out: % Inhibition mean) [%]	inhibition at 10 µM ([3]; read-out: % Inhibition mean) [%]	inhibition at 10 µM ([4]; read-out: % Inhibition mean) [%]	Compound
< 40	18	< 40	8	< 40	13	< 40	23	–	–	–	–	CCn1ncc2c1CC[C@H](Nc1nc3c(-c4ccc(F)c(Cl)c4)cccn3n1)C2 [Example S-61, (S)-[8-(3-Chloro-4-fluoro-phenyl)-[1,2,4]triazolo[1,5-a]pyridine-2-yl]-(1-ethyl-4,5,6,7-tetrahydro-1H-indazol-5-yl)-amine]
40 to 80	42	< 40	22	< 40	5	< 40	16	–	–	–	–	CCn1ncc2c1CCC(Nc1nc3c(-c4cccc(Cl)c4)cccn3n1)C2 (stereo not shown) [Example 59, [8-(3-Chloro-phenyl)-[1,2,4]triazolo[1,5-a]pyridine-2-yl]-(1-ethyl-4,5,6,7-tetrahydro-1H-indazol-5-yl)-amine]
40 to 80	79	< 40	31	< 40	23	< 40	25	–	–	–	–	CCn1ncc2c1CCC(Nc1nc3c(-c4cncc(Cl)c4)cccn3n1)C2 (stereo not shown) [Example 73, [8-(5-Chloro-pyridin-3-yl)-[1,2,4]triazolo[1,5-a]pyridine-2-yl]-(1-ethyl-4,5,6,7-tetrahydro-1H-indazol-5-yl)-amine]
> 80	83	< 40	22	< 40	17	< 40	14	–	–	–	–	CCn1ncc2c1CCC(Nc1nc3c(-c4cncc(OC)c4)cccn3n1)C2 (stereo not shown) [Example 70, (1-Ethyl-4,5,6,7-tetrahydro-1H-indazol-5-yl)-[8-(5-methoxy-pyridin-3-yl)-[1,2,4]triazolo[1,5-a]pyridine-2-yl]-amine]
